According to DBAASP:
Values after ≈ are worked out from the molar mass of the structure shown. Each block holds one molecule with its values, some of them ahead of it.

Tests used:
Assay in all cases: ≥ marks a high value that may be exact or a test limit, other limits are often not marked, values filed in µg/mL are converted to µM
[1] = tested on: Escherichia coli CGMCC 1.8732
[2] = tested on: Pseudomonas aeruginosa CGMCC 1.2421
[3] = tested on: Staphylococcus aureus CGMCC 1.8721
[4] = tested on: Staphylococcus epidermidis CGMCC 1.4260
[5] = tested on: Klebsiella pneumoniae CGMCC 1.1736
Acinetobacter baumannii = tested on: Acinetobacter baumannii
[6] = tested on: Bacillus subtilis CGMCC 1.3376
[7] = tested on: Candida albicans NCPF 1467
[8] = tested on: Escherichia coli NCTC 10418
[9] = tested on: Staphylococcus aureus ATCC 12493
[10] = tested on: Staphylococcus aureus NCTC 10788
[11] = tested on: Klebsiella pneumoniae Q14-0285
[12] = tested on: Pseudomonas aeruginosa Q14-0208
[13] = tested on: Staphylococcus aureus ATCC 29213
[14] = tested on: Pseudomonas aeruginosa Q14-0890
[15] = tested on: Klebsiella pneumoniae Q14-0095
[16] = tested on: Acinetobacter baumannii Q12-0867
[17] = tested on: Campylobacter jejuni NCTC 11351
[18] = tested on: Staphylococcus aureus NCTC 12493
Escherichia coli K-12 = tested on: Escherichia coli K-12
Escherichia coli = tested on: Escherichia coli
Campylobacter jejuni = tested on: Campylobacter jejuni
[19] = tested on: Acinetobacter baumannii Q13-0717
[20] = tested on: Salmonella typhimurium SL1344
[21] = tested on: Listeria monocytogenes NCTC 11994
[22] = tested on: Klebsiella pneumoniae ATCC 700603
[23] = tested on: Staphylococcus aureus Q14-0320
[24] = tested on: Pseudomonas aeruginosa PAO1
[25] = tested on: Klebsiella pneumoniae NCTC 13442
[26] = tested on: Acinetobacter baumannii Q12-0809
[27] = tested on: Staphylococcus aureus RN4220
[28] = tested on: Enterococcus faecalis JH-2-2
[29] = tested on: Pseudomonas aeruginosa Q12-0581
[30] = tested on: Staphylococcus aureus MRSA-15
[31] = tested on: Pseudomonas aeruginosa ATCC 27853
[32] = tested on: Escherichia coli ATCC 25922
[33] = tested on: Salmonella enterica subsp. enterica serovar Typhi Vi+
[34] = tested on: Escherichia coli ATCC 11775
[35] = tested on: Salmonella enterica subsp. enterica serovar Typhimurium ATCC 14028
[36] = tested on: Escherichia coli ATCC 35218

MIC [1]: 12.5 µM (≈ 32.2 µg/mL)
MIC [2]: 12.5 µM (≈ 32.2 µg/mL)
MIC [3]: ≥ 100 µM
MIC [4]: 6.25 µM (≈ 16.1 µg/mL)
MIC [5]: 12.5 µM (≈ 32.2 µg/mL)
MIC (Acinetobacter baumannii): 12.5 µM (≈ 32.2 µg/mL)
MIC [6]: 12.5 µM (≈ 32.2 µg/mL)
Compound: CC[C@H](C)[C@H](NC(=O)[C@H](CO)NC(=O)CNC(=O)[C@@H](NC(=O)[C@@H](N)CCCN=C(N)N)[C@@H](C)CC)C(=O)N[C@@H](CC(C)C)C(=O)NCC(=O)N[C@@H](CCCN=C(N)N)C(=O)N[C@@H](CC(C)C)C(=O)N[C@@H](C)C(=O)N[C@@H](CCCCN)C(=O)NCC(=O)N[C@@H](CC(C)C)C(=O)N1CCC[C@H]1C(=O)N[C@H](C(=O)N[C@@H](CC(C)C)C(=O)N[C@@H](CCCCN)C(=O)N[C@@H](CO)C(=O)N[C@@H](Cc1c[nH]c2ccccc12)C(=O)N[C@H](C(=O)N[C@@H](CCCCN)C(=O)N[C@@H](CC(N)=O)C(=O)N[C@@H](CCCN=C(N)N)C(N)=O)[C@@H](C)CC)[C@@H](C)O [RIGSILGRLAKGLPTLKSWIKNR]

MIC [7]: ≥ 512 µM
MIC [8]: ≥ 512 µM
MIC [9]: ≥ 512 µM
MIC [10]: ≥ 128 µM
Compound: CC(C)C[C@H](NC(=O)[C@H](CC(C)C)NC(=O)[C@H](CC(C)C)NC(=O)[C@@H]1CCCN1C(=O)[C@H](CC(C)C)NC(=O)[C@@H](N)Cc1ccccc1)C(=O)N[C@@H](C)C(=O)NCC(=O)N[C@@H](CC(C)C)C(=O)N1CCC[C@H]1C(=O)N[C@@H](CO)C(=O)N[C@@H](Cc1ccccc1)C(=O)N[C@@H](CC(C)C)C(=O)N[C@H]1CSSC[C@@H](C(=O)O)NC(=O)[C@H](CCCCN)NC(=O)[C@H](CCCCN)NC(=O)[C@H](Cc2ccccc2)NC(=O)[C@H](C(C)C)NC(=O)[C@H](CC(C)C)NC1=O [FLPLLLAGLPSFLCLVFKKC]

MIC [11]: 24.6 µM (≈ 64 µg/mL)
MIC [12]: ≥ 49.2 µM
MIC [13]: > 49.2 µM
MIC [14]: 24.6 µM (≈ 64 µg/mL)
MIC [15]: ≥ 49.2 µM
MIC [16]: 24.6 µM (≈ 64 µg/mL)
MIC [17]: ≥ 49.2 µM
MIC [18]: 12.3 µM (≈ 32 µg/mL)
MIC (Escherichia coli K-12): 24.6 µM (≈ 64 µg/mL)
MIC (Escherichia coli): > 49.2 µM
MIC (Campylobacter jejuni): ≥ 49.2 µM
MIC [19]: ≥ 49.2 µM
MIC [20]: 12.3 µM (≈ 32 µg/mL)
MIC [21]: 24.6 µM (≈ 64 µg/mL)
MIC [22]: 49.2 µM (≈ 128 µg/mL)
MIC [23]: ≥ 49.2 µM
MIC [24]: 197 µM (≈ 512 µg/mL)
MIC [25]: ≥ 49.2 µM
MIC [26]: 12.3 µM (≈ 32 µg/mL)
MIC [27]: ≥ 49.2 µM
MIC [28]: 24.6 µM (≈ 64 µg/mL)
MIC [29]: ≥ 49.2 µM
MIC [30]: ≥ 49.2 µM
MIC [31]: > 49.2 µM
Compound: CC(C)C[C@H](NC(=O)[C@H](Cc1cnc[nH]1)NC(=O)[C@H](Cc1ccccc1)NC(=O)[C@H](Cc1ccccc1)NC(=O)[C@H](CCCN=C(N)N)NC(=O)[C@H](CCCCN)NC(=O)[C@H](CO)NC(=O)[C@H](CCCN=C(N)N)NC(=O)[C@H](Cc1cnc[nH]1)NC(=O)[C@H](CC(C)C)NC(=O)[C@H](Cc1ccccc1)NC(=O)[C@H](CCCCN)NC(=O)[C@H](CCCN=C(N)N)NC(=O)[C@H](Cc1ccc(O)cc1)NC(=O)CNC(=O)[C@@H](NC(=O)[C@H](Cc1cnc[nH]1)NC(=O)[C@H](CC(C)C)NC(=O)[C@@H](N)C(C)C)[C@@H](C)O)C(=O)N[C@@H](CCCN=C(N)N)C(=O)O [VLHTGYRKFLHRSKRFFHLR]

MIC [32]: 0.4 µM (≈ 0.874 µg/mL)
MIC [33]: 3 µM (≈ 6.55 µg/mL)
MIC [34]: 0.6 µM (≈ 1.31 µg/mL)
MIC [35]: 2 µM (≈ 4.37 µg/mL)
MIC [36]: 0.2 µM (≈ 0.437 µg/mL)
Compound: CC[C@H](C)[C@H](NC(=O)[C@@H]1CCCN1C(=O)[C@H](CCCN=C(N)N)NC(=O)[C@@H]1CCCN1C(=O)[C@H](Cc1cnc[nH]1)NC(=O)[C@H](CO)NC(=O)[C@H](CO)NC(=O)[C@@H]1CCCN1C(=O)[C@H](CCCN=C(N)N)NC(=O)[C@@H]1CCCN1C(=O)[C@H](CO)NC(=O)[C@H](Cc1ccc(O)cc1)NC(=O)[C@@H]1CCCN1C(=O)[C@H](CCCN=C(N)N)NC(=O)[C@@H]1CCCN1C(=O)[C@H](CCCCN)NC(=O)CN)C(=O)N[C@@H](CCCN=C(N)N)C(=O)N[C@H](C(=O)O)C(C)C [GKPRPYSPRPSSHPRPIRV]
